We go through twelve compounds from patent US8183351B2, “Avermectin derivatives” (Bayer Cropscience AG, priority 2006, dated 2012).

Each structure is given as a SMILES string.

The test system of this test is larvae of the mustard beetle (Phaedon cochleariae). Kind of test: Phaedon test (PHAECO spray treatment). The format is in vivo. As to conditions: 4 ppm active compound, sprayed Chinese cabbage discs. Here is the method: Phaedon Test (PHAECO Spray Treatment)
• Solvents: 78 parts by weight of acetone • 1.5 parts by weight of dimethylformamide • Emulsifier: 0.5 part by weight of alkylaryl polyglyycol ether
After the desired period of time, the effect in % is determined. 100% means that all beetle larvae have been killed; 0% means that none of the beetle larvae have been killed.

Take `CCC(C)C1OC2(C=CC1C)CC1CC(CC=C(C)C(OC3CC(OC)C(OC(=O)C(C)N4CCN(C(=O)OC(C)(C)C)CC4)C(C)O3)C(C)C=CC=C3COC4C(O)C(C)=CC(C(=O)O1)C34O)O2` (mixture of isomers) [Example 77]: the “Kill rate in % after 7 days” value (Example G) is reported as 100%.

`CC[C@H](C)[C@H]1OC2(C=C[C@@H]1C)C[C@@H]1C[C@@H](C/C=C(\C)[C@@H](OC3CC(OC)C(OC(=O)Cn4ccnn4)C(C)O3)[C@@H](C)/C=C/C=C3\CO[C@@H]4[C@H](O)C(C)=CC(C(=O)O1)[C@]34O)O2` (stereo partly drawn) [Example 3]: the “Kill rate in % after 7 days” value (Example D) worked out at 80%.

Turning to `CC[C@H](C)[C@H]1OC2(CC[C@@H]1C)C[C@@H]1C[C@@H](C/C=C(\C)[C@@H](OC3CC(OC)C(OC(=O)Cn4cccn4)C(C)O3)[C@@H](C)/C=C/C=C3\CO[C@@H]4[C@H](O)C(C)=CC(C(=O)O1)[C@]34O)O2` (stereo partly drawn) [Example 22], where the note is “Example G”, the “Kill rate in % after 7 days” value is recorded as 100%.

With `CC[C@H](C)[C@H]1OC2(C=C[C@@H]1C)C[C@@H]1C[C@@H](C/C=C(\C)[C@@H](OC3CC(OC)C(OC(=O)CC4CCCO4)C(C)O3)[C@@H](C)/C=C/C=C3\CO[C@@H]4[C@H](O)C(C)=CC(C(=O)O1)[C@]34O)O2` (stereo partly drawn) [Example 31], the “Kill rate in % after 7 days” value (Example G) was 100%.

In the case of `CC[C@H](C)[C@H]1OC2(C=C[C@@H]1C)C[C@@H]1C[C@@H](C/C=C(\C)[C@@H](OC3CC(OC)C(OC(=O)C4CC4(Cl)Cl)C(C)O3)[C@@H](C)/C=C/C=C3\CO[C@@H]4[C@H](O)C(C)=CC(C(=O)O1)[C@]34O)O2` (stereo partly drawn) [Example 37], the “Kill rate in % after 7 days” value (Example G) is 100%.

As for `CC[C@H](C)[C@H]1OC2(C=C[C@@H]1C)C[C@@H]1C[C@@H](C/C=C(\C)[C@@H](OC3CC(OC)C(OC(=O)Cn4nc(C(F)(F)F)cc4OC)C(C)O3)[C@@H](C)/C=C/C=C3\CO[C@@H]4[C@H](O)C(C)=CC(C(=O)O1)[C@]34O)O2` (stereo partly drawn) [Example 41], the “Kill rate in % after 7 days” value (Example G) came to 83%.

On to `CC[C@H](C)[C@H]1OC2(C=C[C@@H]1C)C[C@@H]1C[C@@H](C/C=C(\C)[C@@H](OC3CC(OC)C(OC(=O)Cc4c(C)noc4C)C(C)O3)[C@@H](C)/C=C/C=C3\CO[C@@H]4[C@H](O)C(C)=CC(C(=O)O1)[C@]34O)O2` (stereo partly drawn) [Example 43], for which, under “Example G”, the “Kill rate in % after 7 days” value worked out at 100%.

For the compound `CC[C@H](C)[C@H]1OC2(C=C[C@@H]1C)C[C@@H]1C[C@@H](C/C=C(\C)[C@@H](OC3CC(OC)C(OC(=O)Cn4c(C)ccc4C)C(C)O3)[C@@H](C)/C=C/C=C3\CO[C@@H]4[C@H](O)C(C)=CC(C(=O)O1)[C@]34O)O2` (stereo partly drawn) [Example 44], where the note is “Example G”, the “Kill rate in % after 7 days” value amounted to 100%.

On to `CC[C@H](C)[C@H]1OC2(C=C[C@@H]1C)C[C@@H]1C[C@@H](C/C=C(\C)[C@@H](OC3CC(OC)C(OC(=O)CN4CCC(NC(=O)OC(C)(C)C)CC4)C(C)O3)[C@@H](C)/C=C/C=C3\CO[C@@H]4[C@H](O)C(C)=CC(C(=O)O1)[C@]34O)O2` (stereo partly drawn) [Example 51], for which, where the note is “Example G”, the “Kill rate in % after 7 days” value was 100%.

As for `CC[C@H](C)[C@H]1OC2(C=C[C@@H]1C)C[C@@H]1C[C@@H](C/C=C(\C)[C@@H](OC3CC(OC)C(OC(=O)CN4CCN(C(=O)OC(C)(C)C)CC4)C(C)O3)[C@@H](C)/C=C/C=C3\CO[C@@H]4[C@H](O)C(C)=CC(C(=O)O1)[C@]34O)O2` (stereo partly drawn) [Example 53, 4′-O-{[4-(tert-Butoxycarbonyl)piperazin-1-yl]acetyl}-avermectin B1 monosaccharide], the “Kill rate in % after 7 days” value (Example G) came out at 100%.

Take `CC[C@H](C)[C@H]1OC2(C=C[C@@H]1C)C[C@@H]1C[C@@H](C/C=C(\C)[C@@H](OC3CC(OC)C(OC(=O)C(C)n4ccnn4)C(C)O3)[C@@H](C)/C=C/C=C3\CO[C@@H]4[C@H](O)C(C)=CC(C(=O)O1)[C@]34O)O2` (stereo partly drawn) [Example 56]: the “Kill rate in % after 7 days” value (Example G) turned out to be 100%.

Consider `CC[C@H](C)[C@H]1OC2(C=C[C@@H]1C)C[C@@H]1C[C@@H](C/C=C(\C)[C@@H](OC3CC(OC)C(OC(=O)C(C)n4ccnc4)C(C)O3)[C@@H](C)/C=C/C=C3\CO[C@@H]4[C@H](O)C(C)=CC(C(=O)O1)[C@]34O)O2` (stereo partly drawn) [Example 58], for which, for the setting “Example G”, the “Kill rate in % after 7 days” value was 100%.
